# Counter-ions that a name gives are not always drawn.
# Assay: APCC in vivo screen: blood cholesterol in male Sprague-Dawley rats on high fat, high cholesterol diet with 0.5% cholic acid
# Conditions: Rattus norvegicus, single dose 30 mg/kg, high fat high cholesterol diet overnight, read-out: % Change (mg/dl) (cholesterol)
# Excerpt: In one in vivo screen designated APCC, male Sprague-Dawley rats (200 to 225 g) were randomly divided into treatment groups and dosed at 4 PM with either vehicle (CMC/Tween) or suspensions of compounds in vehicle. The normal chow diet was then replaced with a high fat, high cholesterol diet with 0.5% cholic acid. The rats consumed this diet ad libitum during the night and were sacrificed at 8 AM to obtain blood samples for cholesterol analysis using standard procedures. Statistical differences between mean cholesterol values for the same vehicle were determined using analysis of variance followed by Fisher's least significant test. The compounds were dosed at 30 mg/kg unless otherwise noted.
row,Compound,change in vivo at 30 mg/kg [%]
1,"CCCCCCN(CCCCCC)S(=O)(=O)NC(=O)Oc1c(C(C)(C)C)cc(C)cc1C(C)(C)C [Example 25, 2,6-Bis(1,1-dimethylethyl)-4-methylphenyl[(dihexylamino)sulfonyl]carbamate]",-40
2,"CCCCCCN(CCCCCC)S(=O)(=O)NC(=O)Oc1c(C(C)C)cccc1C(C)C [Example 41, 2,6-Bis(1-methylethyl)phenyl[(dihexylamino)sulfonyl]carbamate]",-62
3,"CCCCCN(CCCCC)S(=O)(=O)NC(=O)Oc1c(C(C)C)cccc1C(C)C [Example 42, 2,6-Bis(1-methylethyl)phenyl[(dipentylamino)sulfonyl]carbamate]",-74
4,"CCCCCCNS(=O)(=O)NC(=O)Oc1c(C(C)C)cccc1C(C)C [Example 37, 2,6-Bis(1-methylethyl)phenyl[(hexylamino)sulfonyl]carbamate]",-58
5,"CCCCCN(CCCCC)S(=O)(=O)NC(=O)Oc1c(C(C)(C)C)cc(C)cc1C(C)(C)C [Example 23, 2,6-Bis(1,1-dimethylethyl)-4-methylphenyl[(dipentylamino)sulfonyl]carbamat]",-42
6,"CCCCCCCCN(CCCCCCCC)S(=O)(=O)NC(=O)Oc1c(C(C)C)cccc1C(C)C [Example 38, 2,6-Bis(1-methylethyl)phenyl[(dioctylamino)sulfonyl]carbamate]",-70
7,"CC(C)c1cccc(C(C)C)c1OC(=O)NS(=O)(=O)Nc1nc2ccccc2[nH]1 [Example 13, 2,6-Bis(1-methylethyl)phenyl[(1H-benzimidazol-2-ylamino)sulfonyl]carbamate]",8
8,CC(C)c1cccc(C(C)C)c1OC(=O)NS(=O)(=O)N1CCc2ccccc21 [Example 54],-77
9,"COc1cc(C(C)(C)C)c(OC(=O)NS(=O)(=O)Nc2c(C(C)C)cccc2C(C)C)c(C(C)(C)C)c1 [Example 4, 2,6-bis(1,1-dimethylethyl)-4-methoxy phenyl[[[2,6-bis(1-methylethyl)phenyl]amino]sulfonyl]carbamate]",-77
10,COc1cc(C(C)(C)C)c(OC(=O)NS(=O)(=O)NCC(c2ccccc2)c2ccccc2)c(C(C)(C)C)c1 [Example 3],-55
11,"CC(C)c1cccc(C(C)C)c1OC(=O)NS(=O)(=O)N(C(C)C)C1CCCCC1 [Example 39, 2,6-Bis(1-methylethyl)phenyl[[cyclohexyl(1-methylethyl)amino]sulfonyl]carbamate]",-60
12,"CCCCN(CCCC)S(=O)(=O)NC(=O)Oc1c(C(C)(C)C)cc(C)cc1C(C)(C)C [Example 22, 2,6-Bis(1,1-dimethylethyl)-4-methylphenyl[(dibutylamino)sulfonyl]carbamate]",-4
13,"CC(C)c1cccc(C(C)C)c1OC(=O)NS(=O)(=O)N1CCCC1 [Example 52, 2,6-Bis(1-methylethyl)-phenyl ester(1-pyrrolidinylsulfonyl)-carbamic acid]",-53
14,CC(C)c1cccc(C(C)C)c1OC(=O)NS(=O)(=O)N(Cc1ccccc1)C(C)C [Example 36],-70
15,"CN(C(=O)Oc1c(C(C)(C)C)cccc1C(C)(C)C)S(=O)(=O)NC(c1ccccc1)c1ccccc1 [Example 58, 2,6-bis(1,1-dimethylethyl)phenyl[[(diphenylmethyl)amino]sulfonyl]methyl carbamate]",4
16,"CCCCCCCCN(C)S(=O)(=O)NC(=O)Oc1c(C(C)(C)C)cc(C)cc1C(C)(C)C [Example 29, 2,6-Bis(1,1-dimethylethyl)-4-methylphenyl[(methyloctylamino)sulfonyl]carbamate]",-55
17,"Cc1cc(C(C)(C)C)c(OC(=O)NS(=O)(=O)N(CC2CCCO2)CC2CCCO2)c(C(C)(C)C)c1 (centres unmarked) [Example 30, 2,6-Bis(1,1-dimethylethyl)4-methylphenyl[[bis[(tetrahydro-2-furanyl)methyl]amino]sulfonyl]carbamate]",2
18,"CCCCCCCCN(CCCCCCCC)S(=O)(=O)NC(=O)Oc1c(C(C)(C)C)cc(C)cc1C(C)(C)C [Example 31, 2,6-Bis(1,1-dimethylethyl)-4-methylphenyl[(dioctylamino)sulfonyl]carbamate]",0
19,"CC(C)c1cccc(C(C)C)c1OC(=O)NS(=O)(=O)N(C(C)C)C(C)C [Example 35, 2,6-Bis(1-methylethyl)phenyl[[bis(1-methylethyl)amino]sulfonyl]carbamate]",-76
20,"CC(C)c1cccc(C(C)C)c1OC(=O)NS(=O)(=O)N(c1ccccc1)c1ccccc1 [Example 10, 2,6-bis(1-methylethyl)phenyl[(diphenylamino)sulfonyl]carbamate]",-67
21,CCCCCCCCCCN(CCCCCCCCCC)S(=O)(=O)NC(=O)Oc1c(C(C)(C)C)cc(C)cc1C(C)(C)C [Example 34],-4
22,"Cc1cc(C(C)(C)C)c(OC(=O)NS(=O)(=O)N(C(C)C)C(C)C)c(C(C)(C)C)c1 [Example 24, 2,6-Bis(1,1-dimethylethyl)-4-methylphenyl[[bis(1-methylethyl)amino]sulfonyl]carbamate]",-19
23,"CCCCCCNS(=O)(=O)NC(=O)Oc1c(C(C)(C)C)cc(C)cc1C(C)(C)C [Example 26, 2,6-Bis(1,1-dimethylethyl)-4-methylphenyl[(hexylamino)sulfonyl]carbamate]",-52
24,"CC(C)c1cccc(C(C)C)c1OC(=O)NS(=O)(=O)N(Cc1ccccc1)Cc1ccccc1 [Example 12, 2,6-Bis(1-methylethyl)phenyl[[bis(phenylmethyl)amino]sulfonyl]carbamate]",-43

# Same assay, conditions: Rattus norvegicus, single dose 50 mg/kg (*), high fat high cholesterol diet overnight, read-out: % Change (mg/dl) (cholesterol)
row,Compound,change in vivo at 50 mg/kg [%]
1,"CC(C)c1cccc(C(C)C)c1OC(=O)NS(=O)(=O)Nc1ccccc1 [Example 14, 2,6-Bis(1-methylethyl)phenyl[(phenylamino)sulfonyl]carbamate]",-55
2,"Cc1cc(C(C)(C)C)c(OC(=O)NS(=O)(=O)Nc2ccccc2)c(C(C)(C)C)c1 [Example 21, 2,6-Bis(1,1-dimethylethyl)-4-methylphenyl[(phenylamino)sulfonyl]carbamate]",-33
3,"Cc1cc(C(C)(C)C)c(OC(=O)NS(=O)(=O)NC(c2ccccc2)c2ccccc2)c(C(C)(C)C)c1 [Example 18, 2,6-Bis(1,1-dimethylethyl)-4-methylphenyl[[(diphenylmethyl)amino]sulfonyl]carbamate]",-42
4,"CC(C)c1cccc(C(C)C)c1NS(=O)(=O)NC(=O)Oc1c(C(C)(C)C)cccc1C(C)(C)C [Example 6, 2,6-bis(1,1-dimethylethyl)phenyl[[[2,6-bis(1-methylethyl)phenyl]amino]sulfonyl]carbamate]",-57
5,CC(C)(C)c1cccc(C(C)(C)C)c1OC(=O)NS(=O)(=O)N(Cc1ccccc1)Cc1ccccc1 [Example 9],-3
6,CC(C)c1cccc(C(C)C)c1OC(=O)NS(=O)(=O)NCC(c1ccccc1)c1ccccc1 [Example 15],-29
7,"Cc1cc(C(C)(C)C)c(OC(=O)NS(=O)(=O)NCC(c2ccccc2)c2ccccc2)c(C(C)(C)C)c1 [Example 20, 2,6-Bis(1,1-dimethylethyl)-4-methylphenyl[[(2,2-diphenylethyl)amino]sulfonyl]carbamate]",-54
8,"CC(C)c1cccc(C(C)C)c1OC(=O)NS(=O)(=O)NC(c1ccccc1)c1ccccc1 [Example 17, 2,6-Bis(1-methylethyl)phenyl[[(diphenylmethyl)amino]sulfonyl]carbamate]",-46
9,"CC(C)(C)c1cccc(C(C)(C)C)c1OC(=O)NS(=O)(=O)Nc1ccccc1 [Example 8, 2,6-bis(1,1-dimethylethyl)phenyl[(phenylamino)sulfonyl]carbamate]",-26
10,Cc1cc(C(C)(C)C)c(OC(=O)NS(=O)(=O)Nc2c(C(C)C)cccc2C(C)C)c(C(C)(C)C)c1 [Example 19],-56
11,"CC(C)(C)c1cccc(C(C)(C)C)c1OC(=O)NS(=O)(=O)NCC(c1ccccc1)c1ccccc1 [Example 7, 2,6-bis(1,1-dimethylethyl)phenyl[[(2,2-diphenylethyl)amino]sulfonyl]carbamate]",-32
12,"CC(C)c1cccc(C(C)C)c1NS(=O)(=O)NC(=O)Oc1c(C(C)C)cccc1C(C)C [Example 16, 2,6-Bis(1-methylethyl)phenyl[[[2,6-bis(1-methylethyl)phenyl]amino]sulfonyl]carbamate]",-65

# Same assay, conditions: rat, single dose 30 mg/kg, high fat high cholesterol diet overnight, monosodium salt, 30 mg/kg
row,Compound,% Change (mg/dl) (cholesterol)
1,"CCCCN(CCCC)S(=O)(=O)NC(=O)Oc1c(C(C)C)cccc1C(C)C [Example 57, 2,6-bis(1-methylethyl)phenyl[(dibutylamino)sulfonyl]carbamate monosodium salt]",-66 % Change (mg/dl)

# Same assay, conditions: rat, single dose 30 mg/kg, high fat high cholesterol diet overnight, read-out: % Change (mg/dl) (cholesterol)
row,Compound,change in vivo at 30 mg/kg [%]
1,"CCCCCCCCCCCCOC(=O)NS(=O)(=O)Nc1c(OC)cc(OC)cc1OC [Example 43, Dodecyl[[(2,4,6-trimethoxyphenyl)amino]sulfonyl]carbamate]",-8
2,"Cc1cc(C(C)(C)C)c(OC(=O)NS(=O)(=O)N(CCCN(C)C)CCCN(C)C)c(C(C)(C)C)c1 [Example 28, 2,6-Bis(1,1-dimethylethyl)-4-methylphenyl[[[bis-3-(di-methylamino)propyl]amino]sulfonyl]carbamate]",-13
3,CCCCCCCCCCCCOC(=O)NS(=O)(=O)Nc1c(C(C)C)cccc1C(C)C [Example 2],0

# Same assay, conditions: rat, single dose 30 mg/kg, high fat high cholesterol diet overnight, sodium salt, 30 mg/kg
row,Compound,% Change (mg/dl) (cholesterol)
1,"Cc1cc(C(C)(C)C)c(OC(=O)NS(=O)(=O)N(C)CCc2ccccn2)c(C(C)(C)C)c1 [Example 33, 2,6-Bis(1,1-dimethylethyl)-4-methylphenyl[[[methyl 2-(2-pyridinyl)ethyl]amino]sulfonyl]carbamate, sodium salt]",-22 % Change (mg/dl)
